From patent US7419984B2, “Pyrimidines and uses thereof” (Cell Therapeutics, Inc., priority 2002, dated 2008)

Target: T1, human LPAAT-β (Homo sapiens, UniProt O15120)
T1 construct: the full-length human LPAAT-β cDNA was amplified by PCR; poly-histidine tag (N); made in house; host or cells: Sf9 insect cells (baculovirus, pFastBac HTc); the membrane fraction was used as the enzyme
T1 sequence (O15120 24-278): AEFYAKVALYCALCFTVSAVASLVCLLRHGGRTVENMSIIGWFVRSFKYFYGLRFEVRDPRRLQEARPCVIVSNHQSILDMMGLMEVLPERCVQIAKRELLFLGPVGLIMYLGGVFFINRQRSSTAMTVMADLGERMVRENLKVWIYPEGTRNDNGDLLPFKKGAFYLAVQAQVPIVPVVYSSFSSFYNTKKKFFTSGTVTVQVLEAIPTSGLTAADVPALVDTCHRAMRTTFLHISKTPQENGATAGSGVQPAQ
Experiment: LPAAT-β cell-free assay
Type: biochemical
Details: Sf9 cell membrane overexpressing recombinant LPAAT-β
Text: For the construction of Baculovirus expression vectors, the full-length human LPAAT-β cDNA was amplified by PCR from the DNA template pCE9.LPAAT-β (West et al., DNA Cell Bid. 16.691-701 (1997)) using the primers 5′-[…] […] […] […]-3′ (olpb1F; SEQ ID NO:1) and 5′-[…] […] […]-3′ (olpb1R; SEQ ID NO:2). The ˜870 bp fragment generated was reamplified by PCR using the primers 5′ […] […] […] […] ATC-3′ (olpb2F; SEQ ID NO:3) and 5′-[…] […] […]-3′ (olpb1R; SEQ ID NO:2). The ˜890 bp fragment generated was then cleaved with Sal I and Xba I for insertion into pFastBac™ HTc vector (Life Technologies, Gaithersberg, M.d.) between the Sal I and Xba I sites for the generation of the plasmid pFB.LPAAT-β. This plasmid was then transformed into E. coli DH10Bac™ (Life Technologies, Gaithersberg, M.d.) for the generation of recombinant Bacmid DNA for transfection in HighFive (Invitrogen, San Diego, Calif.) or SF9 insect cells for the production of recombinant Baculovirus stocks using the protocol described in the Bac-to-Bac® Baculovirus Expression System (Life Technologies, Gaithersberg, M.d.), a eukaryotic expression system for generating recombinant baculovirus through site-specific transposition in E. coli. Viral stocks harvested from the transfected cells can then be used to infect fresh insect cells for the subsequence expression of LPAAT-β fusion protein with a poly-histidine tag and a myc-epitope near its N-terminus. The membrane fraction from these Sf9 cells would be the source of LPAAT enzyme.
For the preparation of membranes from Sf9 Cells, all steps are performed on ice or at 4° C. Sf9 cell pellets (˜10^8 cells) were thawed and resuspended in 1-2 ml of buffer A (20 mM Hepes, pH 7.5, 1 mM DTT, 1 mM EDTA, 20% w/v glycerol, 1 mM Benzamidine, 1 μg/ml soybean trypsin inhibitor (SBTI), 1 μug/ml pepstatin A) w/o DTT but with 1 mM Pefabloc. The cells were lysed by sonication using a Branson Sonifier at output=2, duty cycle=2, 10 pulses each at 10 s. with the tip of small sonicator probe submerged but not touching the walls. DTT was then added to 1 mM from a 1 M stock. The samples were centrifuged at 1500 rpm for 5 min. The low speed supernatant was saved and centrifuged (TLA 100.3 rotor, polycarbonate tubes, 2 ml/tube or 1.5 ml/tube minimum) at 100000×g for 1 hr. The high speed pellet was resuspend in Buffer A with a probe sonicator (10 pulses @ output #2 and duty cycle 20%) as a source of LPAAT enzyme.
LPAAT-β catalyzes the transfer of an acyl group from a donor such as acyl-CoA to LPA. The transfer of the acyl group from acyl-CoA to LPA leads to the release of free CoA, which can be reacted with the thiol reagent, 5,5′-dithiobis(2-nitrobenzoic acid) (DTNB). The reaction between DTNB and the free sulfhydryl group from CoA generates a yellow-colored product, 3-carboxylato-4-nitrothiophenolate (CNP), that absorbs at 413 nm. LPAAT-β derived from Sf9 cell membrane overexpressing LPAAT-β were resuspended in HEPES saline buffer (20 mM HEPES pH 7.5, 150 mM NaCl), 1 mg/ml BSA and 72 μl aliquots were distributed into 96-well microtiter plates. 8 μl of compound of interest at 200 μM dissolved in 100% DMSO was added into each well. […] of 1 mM 18:1-CoA and 1 mM sn-1-18:1 lysoPA was then added to each well to initiate the reaction and allowed to run at room temperature for 25 min. 100 μl of 1 mM DTNB in 100% ethanol was then added to each well to quench the reaction and for color development. The absorbance at 405 nm, measured using a spectrophotometer plate reader, is proportional to the activity of LPAAT-2 in the sample. This colorimetric assay was used for the high throughput screening of LPAAT inhibitors.
The radiometric assay was carried out in Sf9 cell membrane overexpressing LPAAT-β resuspended in HEPES-saline buffer, pH 7.5, 1 mg/ml BSA, 1 mM EDTA and 200 μM [^14C]18:1-CoA and 200 μM sn-1-18:1 lysoPA.

IC50 [nM] | Structure (SMILES)
60 | CCOc1ccc(Br)cc1-c1cc(Nc2ccc(C(F)(F)F)cc2)nc(N)n1 [Example 60, 6-(5-Bromo-2-ethoxy-phenyl)-N*4*-(4-trifuoromethyl-phenyl)-pyrimidin-2,4-diamine]
20 | Nc1nc(Nc2ccc(Cl)cc2)cc(-c2cc(Cl)ccc2Cl)n1 [Example 20, N*4*-(4-Chloro-phenyl)-6-(2,5-dichloro-phenyl)-pyrimidine-2,4-diamine]
500 | COc1ccc(Cl)cc1-c1nc(N)nc(Nc2ccc3cn[nH]c3c2)c1Br [Example 52, 5-Bromo-6-(5-chloro-2-methoxy-phenyl)-N*4*-(1H-indazol-6-yl)-pyrimidine-2,4-diamine]
210 | CNC(=O)c1cc(Nc2cc(-c3cc(Br)ccc3C)nc(N)n2)ccc1Br [Example 78, 5-[2-Amino-6-(5-bromo-2-methyl-phenyl)-pyrimidin-4-ylamino]-2-bromo-N-methyl-benzamide]
190 | Nc1nc(Nc2ccc(Br)cc2)cc(-c2cc(Br)ccc2OCC(F)(F)F)n1 [Example 91, N*4*-(4-Bromo-phenyl)-6-[5-bromo-2-(2,2,2-trifluoro-ethoxy)-phenyl]-pyrimidine-2,4-diamine]
46 | COc1ccc(Cl)cc1-c1cc(Nc2ccc(CCO)cc2)nc(N)n1 [Example 50, 2-{4-[2-Amino-6-(5-chloro-2-methoxy-phenyl)-pyrimidin-4-ylamino]-phenyl}-ethanol]
460 | CCOc1ccc(Br)cc1-c1cc(Nc2cnc3ccccc3c2)nc(N)n1 [Example 144, 6-(5-Bromo-2-ethoxy-phenyl)-N*4*-quinolin-3-yl-pyrimidine-2,4-diamine]
84 | CCOc1ccc(Br)cc1-c1cc(Nc2ccc(C(C)=NO)cc2)nc(N)n1 [Example 130, 1-{4-[2-Amino-6-(5-bromo-2-ethoxy-phenyl)-pyrimidin4-ylamino]-phenyl}-ethanone-oxime]
54 | Cc1ccc(Cl)cc1-c1cc(Nc2ccc(C(O)C(F)(F)F)cc2)nc(N)n1 (centres unmarked) [Example 103, 1-{4-[2-Amino-6-(5-chloro-2-methyl-phenyl)-pyrimidin4-ylamino]-phenyl}-2,2,2-trifluoro-ethanol]
2100 | COc1ccc(Cl)cc1-c1nc(N)cc(Nc2ccc3cn[nH]c3c2)n1 [Example 37, 2-(5-Chloro-2-methoxy-phenyl)-N-(1H-indazol-6-yl)-pyrimidine4,6-diamine]
73 | CCOc1ccc(Cl)cc1-c1cc(Nc2ccc(S(N)(=O)=O)cc2)nc(N)n1 [Example 96, 4-[2-Amino-6-(5-chloro-2-ethoxy-phenyl)-pyrimidin-4-ylamino]-benzenesulfonamide]
160 | Cc1ccc(C)c(-c2cc(Nc3ccc(Cl)cc3)nc(N)n2)c1 [Example 73, N*4*-(4-Chloro-phenyl)-6-(2,5-dimethyl-phenyl)-pyrimidine-2,4-diamine]
280 | CSc1cccc(Nc2cc(-c3cc(Cl)ccc3C)nc(N)n2)c1 [Example 111, 6-(5-Chloro-2-methyl-phenyl)-N*4*-(3-methylsulfanyl-phenyl)-pyrimidine-2,4-diamine]
370 | CNC(=O)c1cc(Nc2cc(-c3cc(Cl)ccc3C)nc(N)n2)ccc1Br [Example 77, 5-[2-Amino-6-(5-chloro-2-methyl-phenyl)-pyrimidin4-ylamino]-2-bromo-N-methyl-benzamide]
49 | Cc1ccc(Br)cc1-c1cc(Nc2ccc(CCO)cc2)nc(N)n1 [Example 100, 2-{4-[2-Amino-6-(5-bromo-2-methyl-phenyl)-pyrimidin-4-ylamino]-phenyl}-ethanol]
100 | Cc1ccc(Br)cc1-c1cc(Nc2ccc(C(F)(F)F)cc2)nc(N)n1 [Example 82, 6-(S-Bromo-2-methyl-phenyl)-N*4*-(4-trifluoromethyl-phenyl)-pyrimidine-2,4-diamine]
9 | C=CCOc1ccc(Cl)cc1-c1cc(Nc2ccc(Cl)cc2)nc(N)n1 [Example 174, 6-(2-Allyloxy-5-chloro-phenyl)-N*4*-(4-chloro-phenyl)-pyrimidine-2,4-diamine]
32 | CCOc1ccc(Cl)cc1-c1cc(Nc2ccc(F)cc2)nc(N)n1 [Example 94, 6-(5-Chloro-2-ethoxy-phenyl)-N*4*-(4-fluoro-phenyl)-pyrimidine-2,4-diamine]
200 | CNC(=O)c1cc(Nc2cc(-c3cc(Br)ccc3OC)nc(N)n2)ccc1Cl [Example 184, 5-[2-Amino-6-(5-bromo-2-methoxy-phenyl)-pyrimidin4-ylamino]-2-chloro-N-methyl-benzamide]
95 | Nc1nc(Nc2ccc3c(c2)OCO3)cc(-c2cc(Cl)ccc2Cl)n1 [Example 23, N*4*-Benzo[1,3]dioxol-5-yl-6-(2,5-dichloro-phenyl)-pyrimidine-2,4-diamine]
18 | COc1ccc(Br)cc1-c1cc(Nc2ccc(Cl)cc2)nc(N)n1 [Example 142, 6-(5-Bromo-2-methoxy-phenyl)-N*4*-(4-chloro-phenyl)-pyrimidine-2,4-diamine]
70 | CCOc1ccc(Cl)cc1-c1cc(Nc2ccc(C(F)(F)F)cc2)nc(N)n1 [Example 56, 6-(5-Chloro-2-ethoxy-phenyl)-N*4*-(4-trifluoromethyl-phenyl)-pyrimidine-2,4-diamine]
49 | Cc1ccc(Cl)cc1-c1cc(Nc2ccc(CCO)cc2)nc(N)n1 [Example 49, 2-{4-[2-Amino-6-(5-chloro-2-methyl-phenyl)-pyrimidin4-ylamino]-phenyl}-ethanol]
120 | COc1ccc(Nc2cc(-c3cc(Cl)ccc3Cl)nc(N)n2)cc1 [Example 16, 6-(2,5-Dichloro-phenyl)-N*4*-(4-methoxy-phenyl)-pyrimidine-2,4-diamine]
180 | COc1ccc(Cl)cc1-c1cc(Nc2ccc(Br)cc2)nc(C)n1 [Example 39, [6-(5-Chloro-2-methoxy-phenyl)-2-methyl-pyrimidin-4-yl]-(4-bromo-phenyl)-amine]
130 | Nc1nc(Nc2ccc(Br)cc2)cc(-c2cc(Cl)cc(Cl)c2Cl)n1 [Example 99, N*4*-(4-Bromo-phenyl)-6-(2,3,5-trichloro-phenyl)-pyrimidine-2,4-diamine]
60 | Nc1nc(Nc2ccc(CO)cc2)cc(-c2cc(Cl)ccc2Cl)n1 [Example 22, {4-[2-Amino-6-(2,5-dichloro-phenyl)-pyrimidin-4-yl-amino]-phenyl}-methanol]
10 | Cc1nc(Nc2ccc(Cl)cc2)cc(-c2cc(Cl)ccc2C)n1 [Example 42, [6-(5-Chloro-2-methyl-phenyl)-2-methyl-pyrimidin-4-yl]-(4-chloro-phenyl)-amine]
170 | CC(C)Oc1ccc(Br)cc1-c1cc(Nc2ccc(Cl)cc2)nc(N)n1 [Example 136, 6-(5-Bromo-2-isopropoxy-phenyl)-N*4*-(4-chloro-phenyl)-pyrimidine-2,4-diamine]
